# Experimental data published in paper PMC6268492, “Synthesis and Antiangiogenic Activity of Novel Gambogic Acid Derivatives” (Molecules, 2012).
# Values joined by “and” are separate entries in the source; they are usually repeats but may differ in a detail not shown here. Equal entries are not always repeated. Where two headings read alike, the source gives them in different places.
# How the values were obtained:
# [1] = system: zebrafish embryos; test: Zebrafish toxicity: heart rates; type: in vivo
# Protocol: (§1) To investigate the toxicity of these four compounds, the heart rates and the mortality rates of zebrafish embryos were recorded (Table 2 and Table 3). The heart rate of zebrafish in the control group was 117 beats/min.
# (§2) Using transgenic fli-1: enhanced GFP zebrafish embryos, we investigated the effects of all compounds on angiogenesis. Zebrafish embryos were generated by natural pairwise mating and raised at 28.5 °C in embryo water (0.2 g/L of Instant Ocean Salt in distilled water). At about 6 h post fertilization (hpf), the embryos were sorted in the 6-well plate (six embryos/well), removing dead and unhealthy embryos. Then the embryos were treated with the indicated concentrations of compounds which were added into embryo water. After incubation for 24 or 48 h, the embryos were anesthetized using 0.05% 2-phenoxyethanol in embryo water, quantified and photographed.
# [2] = system: zebrafish embryos; test: Zebrafish toxicity: mortality rate; type: in vivo, zebrafish (Danio rerio)
# Protocol: as §1, §2
# [3] = system: A549; test: MTT assay, cell proliferation; type: cell-based; conditions: Homo sapiens, 24 h, read-out: IC50, inhibition of cell proliferation
# Protocol: (§3) HepG2, HCT116, HeLa and LO2 cell lines were cultured in DMEM containing 10% fetal bovine serum (FBS), 100 IU/mL penicillin and 100 µg/mL streptomycin; A549 and K562 cell lines were cultured in RPMI 1640 medium containing 10% fetal bovine serum (FBS), 100 IU/mL penicillin and 100 µg/mL streptomycin; Human umbilical vein endothelial cells (HUVECs) were cultured on gelatin-coated culture flasks in M-199 medium with 20% fetal bovine serum (FBS), 2 ng/mL VEGF, 10 ng/mL basic FGF, 100 IU/mL penicillin, and 100 μg/mL streptomycin; all of them were obtained from the American Type Culture Collection (ATCC) and all cell lines were incubated in an atmosphere of 5% CO2 at 37 °C.
# (§4) Cells were treated with various concentrations of compound in 96-well culture plates for 24 h in final volumes of 200 μL (5 × 10^3 cells/well). Then 20 μL of MTT solution (5 mg/mL) was added to each well, and cells were incubated for an additional 3 h. Then the medium was carefully removed, and precipitates were dissolved in 150 μL of DMSO, shaken mechanically for 30 min, and then absorbance values at a wavelength of 570 nm were taken on a spectrophotometer (Molecular Devices, Sunnyvale, CA, USA). Values were calculated using percentage of growth versus untreated control. The IC50 was defined as the concentration that caused 50% inhibition of cell proliferation, and was calculated by SAS statistical software.
# [4] = system: HeLa; test: MTT assay, cell proliferation; type: cell-based; conditions: Homo sapiens, 24 h, read-out: IC50, inhibition of cell proliferation
# Protocol: as §3, §4
# [5] = system: HepG2; test: MTT assay, cell proliferation; type: cell-based; conditions: Homo sapiens, 24 h, read-out: IC50, inhibition of cell proliferation
# Protocol: as §3, §4
# [6] = system: K562; test: MTT assay, cell proliferation; type: cell-based; conditions: Homo sapiens, 24 h, read-out: IC50, inhibition of cell proliferation
# Protocol: as §3, §4
# [7] = system: HCT116; test: MTT assay, cell proliferation; type: cell-based; conditions: Homo sapiens, HCT-116, 24 h, read-out: IC50, inhibition of cell proliferation
# Protocol: as §3, §4
# [8] = system: HUVECs; test: Matrigel tube formation assay; type: cell-based, Human; conditions: Homo sapiens, HUVEC, 0.5 μM, 6 h, vs control, read-out: inhibitory rates of tube formation
# Protocol: In the later stages of angiogenesis, tube formation of ECs is also an important process. Thus, a Matrigel tube formation assay was applied to assess the ability of HUVECs to form ECs vascular structures which is believed to be significant in new vessel formation.
# Figure 4 Effects on the HUVECs tube formation. (I) HUVECs (1 × 10^4 cells) suspended in DMEM containing each compound (0.5 or 1 or 2 μM) were added to the Matrigel. Control was treated with DMEM alone. After incubation for 6 h at 37 °C, capillary networks were photographed and quantified (Olympus CKX41, magnification: 100×); (II) Rates of the HUVECs tube formation. The number of intact tubes was counted in five randomly chosen regions and expressed as the percentage of the control. The results were expressed as mean ±SD. ** p < 0.01; *** p < 0.005 compared with control.
# Matrigel was dissolved at 4 °C overnight. Each well of prechilled 96-well plates was coated with 50 μL of Matrigel, incubated and solidified at 37 °C for 45 min. After removing the unsolidified fluid, HUVECs at the density of 1 × 10^4 were cultured in DMEM containing the indicated concentrations of compounds for 6 h. Controls were treated with the DMEM alone. Images were digitally captured and quantitatively analyzed (Olympus). The numbers and line lengths of the circular tubules formed by the cells were calculated manually. The values were observed from five randomly selected fields.
# [9] = system: HUVEC; test: MTT assay, cell proliferation; type: cell-based, Human; conditions: Homo sapiens, 24 h, read-out: IC50, inhibition of cell proliferation
# Protocol: Inhibiting the proliferation of ECs is another important strategy for antiangiogenesis. […] As the exposure time of these derivatives was 24 h in the migration assay and 6 h in the tube formation assay, the effect of the incubation for 24 h in the presence of these compounds on HUVECs proliferation was then tested. Cell viability was assessed by the MTT method. We can see from Table 4 that these compounds had different antiproliferative activities.
# as §3, §4
# [10] = system: transgenic fli-1: enhanced GFP zebrafish embryos; test: Zebrafish embryo assay: antiangiogenic effects; type: in vivo, zebrafish (Danio rerio); conditions: zebrafish embryos; for inhibition in vivo at 1 µM / inhibition in vivo at 2.5 µM / inhibition in vivo at 10 µM: Danio rerio
# Protocol: As stated previously, zebrafish is regarded as a powerful tool in the study of human diseases. […] In this study, all GA derivatives were incubated with the transgenic friend leukemia integration-1 (fli-1): enhanced GFP zebrafish embryos which carried a fli-1 promoter which can drive the expression of GFP in the whole endothelium.
# Figure 1 Effects on neovascularization in zebrafish embryos. The transgenic fli-1: enhanced GFP zebrafish embryos in embryo water (0.2 g/L of instant ocean salt in distilled water) incubated with 1 μM of compounds at 6 h postfertilization (hpf) for 24 h. Zebrafish embryos were imaged (Imager.Z1, magnification: left, 40×; right, 100×).
# as §2, with “Zebrafish embryos were generated by natural pairwise mating and raised at 28.5 °C in embryo water (0.2 g/L of Instant Ocean Salt in distilled water).” left out
# [11] = system: LO2; test: MTT assay, cytotoxicity; type: cell-based; conditions: Homo sapiens, L02, 24 h, read-out: IC50, inhibition of cell proliferation
# Protocol: as §3, §4
# [12] = system: HUVECs; test: Wound-healing migration assay; type: cell-based, Human; conditions: 1 μM, 24 h, control = 100%
# Source text: The migration of ECs is an important step of angiogenesis. The continuity of vascular ECs is the most important factor in preserving vessel wall function. Migration of ECs is essential to the recovery of this continuity after vascular ECs injury. […] As illustrated in Figure 3(I), the HUVECs migrated into the wound area actively (between the two white dash lines) under the compound-free condition (control).
# Figure 3 Effects on the HUVECs migration. (I) HUVECs suspended in serum-free Dulbecco’s Modified Eagle Medium (DMEM) containing compounds (0.25 or 0.5 or 1 μM) for 24 h were photographed under a phase contrast microscopy (Olympus CKX41, magnification: 50×). Control was treated with serum-free DMEM which was consided as resulting in 100%; (II) Migration rates of compounds on the HUVECs. Data represented the mean standard deviation (SD) from three independent experiments. *** p < 0.005compared with control.
# HUVECs were seeded in 6-well plates precoated with 0.1% gelatin, and grown overnight to confluence. The monolayer cells were wounded by scratching with 10 μL pipet tips and washed twice with serum-free DMEM (Dulbecco’s modified eagle medium) to remove the nonadherent cells and then replaced by serum-free DMEM with the indicated concentrations of compounds for 24 h. Images were taken at 0 h and 24 h independently after incubation at 37 °C, 5% CO2 environment. The migrated HUVECs were manually counted. The values were observed from four randomly selected fields.
# [13] = transgenic fli-1:enhanced GFP (fli-1:EGFP) line, zebrafish, in vivo, 2.5 μM
# [14] = transgenic fli-1:enhanced GFP (fli-1:EGFP) line, zebrafish, in vivo, 10 μM
# [15] = 2.5 µM and 10 µM, zebrafish embryos
# [16] = vs vehicle (0.05% DMSO), read-out: Anti-angiogenic phenotype
# [17] = 2.5 μM, vs vehicle (0.05% DMSO), read-out: Anti-angiogenic phenotype
# [18] = 10 μM, vs vehicle (0.05% DMSO), read-out: Anti-angiogenic phenotype
Structure (SMILES),"Heart rates of zebrafish [1, 13] [beats/min]","Heart rates of zebrafish [1, 14] [beats/min]","Mortality rates ([2]; 1 μM, zebrafish) [%]","Mortality rates [2, 15]","Mortality rates ([2]; 2.5 μM, zebrafish) [%]","Mortality rates ([2]; 10 μM, zebrafish) [%]",IC50 [3] [nM],IC50 [4] [nM],IC50 [5] [nM],IC50 [6] [nM],IC50 [7] [nM],inhibition at 0.5 µM [8] [%],IC50 [9] [nM],inhibition in vivo at 1 µM ([10]; read-out: antiangiogenic rates) [%],"inhibition in vivo at 1 µM [10, 16] [%]","inhibition in vivo at 2.5 µM [10, 17] [%]","inhibition in vivo at 10 µM [10, 18] [%]",IC50 [11] [nM],"Heart rates of zebrafish ([1]; 2.5 μM, control 117 beats/min)","Heart rates of zebrafish ([1]; 10 μM, control 117 beats/min)",further results
"CC(C)=CCCC1(C)C=Cc2c(O)c3c(c(CC=C(C)C)c2O1)OC12C(=CC4CC1C(C)(C)OC2(C/C=C(/C)C(=O)Nc1nccs1)C4=O)C3=O (stereo not shown) [Compound 32, Thiazol-2-gambogamide]",60 ± 4.36,54 ± 3.68,0,less than 20%,6.7 ± 5.77,16.7 ± 5.77,740 ± 40,1080 ± 100,810 ± 60,400 ± 20,450 ± 10,39.1,1090 ± 90,25 to 50,25 to 50,50 to 75,> 75,1700 ± 480,–,–,–
"CC(=O)Nc1ccc(NC(=O)/C(C)=C\CC23OC(C)(C)C4CC(C=C5C(=O)c6c(O)c7c(c(CC=C(C)C)c6OC542)OC(C)(CCC=C(C)C)C=C7)C3=O)cc1 (stereo not shown) [Compound 35, N-(4-acetamidophenyl) gambogamide]",–,–,3.3 ± 5.77,less than 20%,10 ± 0.00,16.7 ± 5.77,500 ± 50,490 ± 20,270 ± 50,260 ± 10,400 ± 20,37,200 ± 10,25 to 50,25 to 50,50 to 75,> 75,1170 ± 410,57 ± 2.61 beats/min,45 ± 4.95 beats/min,"heart rates relative to control group ([1]; 2.5 µM and 10 µM, zebrafish): about half of the control group; migratory rates [12]: 3.6%"
"CC(=O)Nc1ccc(OC(=O)/C(C)=C\CC23OC(C)(C)C4CC(C=C5C(=O)c6c(O)c7c(c(CC=C(C)C)c6OC542)OC(C)(CCC=C(C)C)C=C7)C3=O)cc1 (stereo not shown) [Compound 4, 4-Acetamidephenyl gambogate]",80 ± 5.31,54 ± 4.00,0,less than 20%,6.7 ± 5.77,20 ± 0.00,950 ± 90,1340 ± 40,1100 ± 60,410 ± 20,480 ± 40,43.5,1170 ± 120,25 to 50,25 to 50,50 to 75,> 75,830 ± 30,–,–,–
"CC(C)=CCC[C@]1(C)C=Cc2c(O)c3c(c(CC=C(C)C)c2O1)O[C@]12C(=C[C@@H]4C[C@H]1C(C)(C)O[C@@]2(C/C=C(/C)C(=O)O)C4=O)C3=O [GA, Gambogic acid]",–,–,20 ± 0.00,–,73.3,100,940 ± 30,1140 ± 60,840 ± 40,490 ± 30,590 ± 30,26.1,270 ± 10,25 to 50,25 to 50,–,–,890 ± 80,Dead ^b,Dead,"Heart rates of zebrafish ([1]; 1 μM, control 117 beats/min): 36 beats/min and 36 ± 3.32 beats/min; Mortality rates ([2]; 2.5 μM, zebrafish, listed as A): 73.3 ± 5.77%; migratory rates [12]: 2.2%; Anti-angiogenic phenotype ([10]; 2.5 μM, vs vehicle (0.05% DMSO)): Dead ^b; Anti-angiogenic phenotype ([10]; 10 μM, vs vehicle (0.05% DMSO)): Dead"
